Reference: paper PMC10959927, “Platinum iodido drugs show potential anti-tumor activity, affecting cancer cell metabolism and inducing ROS and senescence in gastrointestinal cancer cells” (Communications Biology, 2024)
“And” between values parts separate entries of the source, which are not always exact repeats. Identical values can stand only once.

Legend:
Type in all cases: cell-based, human
[1] = tested on: AGS cells; assay: Flow cytometry mitochondrial mass and membrane potential (MitoTracker Green / CMXRos); conditions: fold change vs C, replicates
Procedure: (§1) We used flow cytometry to study the mitochondrial mass, mitochondrial membrane potential (ΔΨm) and cellular senescence of untreated and treated cells. Cells (5 × 10^4) were seeded in 24-multiwell dishes and cultured overnight. […] Cells were tripsinized, stained with Mitoprobes and resuspended in Flow buffer [1X PBS; 3% Fetal Bovine Serum (v/v); 3 mM EDTA (v/v)] before analysis with a 4-laser Attune NxT Acoustic Cytometer (Thermo Fisher Scientific). For Mitoprobe assays, […] DAPI (Sigma) was used to exclude dead cells. Data were analyzed with FlowJo 9.3 software (Tree Star Inc., Ashland, OR). For mitochondrial mass and ΔΨm measurement, Mitotracker Green (MTGreen, M7514, Invitrogen) and Mitotracker Red CMXRos (CMXROS, M7512, Invitrogen) were used, respectively. Probes were incubated with cells for 30 min at 37 °C at a concentration of 100 nM (MTGreen) and 20 nM (CMXROS), and fluorescence was detected using the filters (Ex488nm/Em530/30) BL1 and (Ex561nm/Em585/16) YL1, respectively. To determine mitochondria functionality, the ratio between ΔΨm (MitoTracker Red CMXRos) versus Mit. Mass (MitoTracker Green) was calculated. The gating strategy used in all the Flow Cytometry experiments is reflected in Fig.S10.

[2] = tested on: MKN45 cells; assay: as above
Procedure: as §1

[3] = tested on: PANC1 cells; assay: as above
Procedure: as §1

[4] = tested on: AGS cells; assay: Seahorse XF OCR, ECAR and energy map; conditions: AGS, IC50 24 h
Procedure: (§2) Oxygen Consumption Rate (OCR), Extra Cellular Acidification Rate (ECAR) and Energy map measurements. Cells were plated in XF HS Miniplates (Seahorse Bioscience) at a cellular density of 1 × 10^4 cells/well and incubated overnight. […] After an OCR baseline measurement, the minimum oxygen consumption was determined by adding 1.5 µM oligomycin (O) and the maximal respiration rate was assessed by adding 1 µM carbonyl cyanide p-trifluoro methoxyphenylhydrazone (FCCP, F). At the end of the experiment, the non-mitochondrial oxygen consumption was evaluated by adding both 0.5 µM rotenone (R) and antimycin (A). Experiments were run in a XF HS Mini analyzer (Seahorse Agilent), and raw data were normalized to total protein using a BCA protein assay kit (Cat. no. 23225, Thermo Scientific).

[5] = tested on: PANC1 cells; assay: Seahorse XF OCR, ECAR and energy map; design: Basal resp. / Maximal resp. / SRC: unit not given here; conditions: PANC1, IC50 24 h
Procedure: as §2

[6] = tested on: AGS cells; assay: Western blotting (p-p53, p-JNK, p-p38, p-ERK, p-CHK1/2, Mcl1, BID, BAX); conditions: for fold change p-ERK vs Tubulin / fold change p-JNK vs Tubulin / fold change p-p38 vs Tubulin / fold change p-p53 vs Tubulin: Fig. 4A, replicate values; for fold change BID full length vs Tubulin / fold change MCL1 vs Tubulin: Fig. S3B
Procedure: (§3) Total protein extracts were obtained by adding the lysis buffer: 25 mM HEPES pH 7.5, 0.3 M NaCl, 1.5 mM MgCl2, 0.2 mM EDTA, 0.5 mM DTT, 20 mM β-glicerophosphate, 0.1 mM Na3VO4, 0.1% triton X-100; in the presence of protease inhibitors. Twenty μg of protein per sample were loaded and resolved using 8%, 10% or 15% SDS-PAGE polyacrylamide gels, and then transferred onto PVDF membranes, followed by immunodetection using appropriate antibodies, purchased from Santa Cruz Technology: Mcl-1 (sc-819), Cell Signaling Technology: BIM, BID, BAX (#9942), p-p38 (1:2000, #4631), p-p53^ser15 (#9284), p-ERK1/2 (1:2000, #9106), p-CHK1^ser345 and p-CHK2^ser19 (#9931), Promega Corporation-Spain: p-JNK (#V7932), or Sigma-Aldrich: α-tubulin (1:10000, #TP026). Unless indicated, all antibodies were diluted 1:1000. Secondary antibodies conjugated with horseradish peroxidase were purchased from BioRad, and chemiluminescence detection was performed using ECL (Santa Cruz Biotechnology).

[7] = tested on: PANC1 cells; assay: as above; conditions: for fold change p-ERK vs Tubulin / fold change p-JNK vs Tubulin / fold change p-p38 vs Tubulin / fold change p-p53 vs Tubulin: PANC1, Fig. 4A, replicate values
Procedure: as §3

[8] = MKN45, fold change vs C, replicates
[9] = PANC1, fold change vs C, replicates

SMILES: CC(C)[NH][Pt@SP3]([I])([I])[NH]C(C)C [I5, trans-[PtI2(isopropylamine)2]]
- Fold change %CMXROS, ΔΨm [1]: 0.96 and 0.93 and 0.85
- Fold change %MTGreen, MM [1]: 1.08 and 1.04 and 1.0618
- Fold change ΔΨm/MM ([2]; MKN45, IC50 doses 24 h, CMX-ROS/MitoGreen ratio vs untreated 1.0): 0.47 and 0.42 and 0.46
- Fold change %CMXROS, ΔΨm [2, 8]: 0.4 and 0.35 and 0.72
- Fold change %MTGreen, MM [2, 8]: 0.86 and 0.82 and 1.11
- Fold change ΔΨm/MM ([3]; PANC1, IC50 doses 24 h, CMX-ROS/MitoGreen ratio vs untreated 1.0): 0.46 and 0.55 and 0.5
- Fold change %CMXROS, ΔΨm [3, 9]: 1.17 and 1.2 and 1.05
- Fold change %MTGreen, MM [3, 9]: 2.17 and 2.54 and 2.28
- effect on ECAR [4]: strong effect
- OCR ([4]; time 21.13 min (I5) / 21.08 min (I6)): 33.7993 pmoles/min/µg protein and 17.1923 pmoles/min/µg protein and 31.197 pmoles/min/µg protein
- OCR ([4]; time 60.15 min (I5) / 60.16 min (I6)): 22.0275 pmoles/min/µg protein and 13.2859 pmoles/min/µg protein and 22.5877 pmoles/min/µg protein
- OCR ([4]; time 66.63 min (I5) / 66.65 min (I6)): 21.2372 pmoles/min/µg protein and 12.4063 pmoles/min/µg protein and 20.3044 pmoles/min/µg protein
- OCR ([4]; time 73.12 min (I5) / 73.14 min (I6)): 19.5577 pmoles/min/µg protein and 11.425 pmoles/min/µg protein and 19.4877 pmoles/min/µg protein
- Basal resp. [5]: 4.37 and 2.91 and 2.68
- effect on ECAR [5]: strong effect
- OCR ([5]; time 14.5 min (I5) / 14.5 min (I6)): 10.9576 pmoles/min/µg protein and 5.698 pmoles/min/µg protein and 5.804 pmoles/min/µg protein
- OCR ([5]; time 21.08 min (I5) / 21.07 min (I6)): 8.99 pmoles/min/µg protein and 4.967 pmoles/min/µg protein and 6.036 pmoles/min/µg protein
- OCR ([5]; time 60.22 min (I5) / 60.14 min (I6)): 6.526 pmoles/min/µg protein and 3.324 pmoles/min/µg protein and 3.875 pmoles/min/µg protein
- activation of p53 (p-p53 western blot) ([6]; IC50, 1, 3, 6 and 24 h): did not activate p53
- phosphorylation of CHK1/2 (DDR pathway, western blot) ([6]; IC50, 1, 3, 6 or 24 h): did not activate
- fold change p-ERK vs Tubulin ([6]; Time 1 h): 3.337 fold change and 2.237 fold change and 6.03 fold change
- fold change p-JNK vs Tubulin ([6]; Time 1 h): 3.178 fold change and 2.647 fold change and 2.394 fold change
- fold change p-p38 vs Tubulin ([6]; Time 1 h): 1.6079 fold change and 2.911 fold change and 3.19 fold change
- fold change p-p53 vs Tubulin ([6]; Time 1 h): 0.8674 fold change and 0.8424 fold change and 1.7105 fold change
- fold change p-ERK vs Tubulin ([6]; Time 3 h): 6.263 fold change and 7.52 fold change and 5.909 fold change
- fold change p-JNK vs Tubulin ([6]; Time 3 h): 3.912 fold change and 2.163 fold change and 1.799 fold change
- fold change p-p38 vs Tubulin ([6]; Time 3 h): 0.8627 fold change and 3.016 fold change and 3.496 fold change
- fold change p-p53 vs Tubulin ([6]; Time 3 h): 0.5433 fold change and 0.6274 fold change and 1.359 fold change
- fold change p-ERK vs Tubulin ([6]; Time 6 h): 3.858 fold change and 7.71 fold change and 6.1 fold change
- fold change p-JNK vs Tubulin ([6]; Time 6 h): 2.706 fold change and 2.4308 fold change and 2.197 fold change
- fold change p-p38 vs Tubulin ([6]; Time 6 h): 1.573 fold change and 3.845 fold change and 3.365 fold change
- fold change p-p53 vs Tubulin ([6]; Time 6 h): 0.4994 fold change and 0.627 fold change and 1.555 fold change
- fold change p-ERK vs Tubulin ([6]; Time 24 h): 3.8691 fold change and 7.1 fold change and 5.002 fold change
- fold change p-JNK vs Tubulin ([6]; Time 24 h): 3.2721 fold change and 2.291 fold change and 2.816 fold change
- fold change p-p38 vs Tubulin ([6]; Time 24 h): 3.758 fold change and 3.606 fold change and 2.16 fold change
- fold change p-p53 vs Tubulin ([6]; Time 24 h): 0.7787 fold change and 0.8882 fold change and 1.672 fold change
- fold change BID full length vs Tubulin ([6]; time 1 h): 0.978 fold change and 1.383 fold change and 0.822 fold change
- fold change BID full length vs Tubulin ([6]; time 3 h): 0.826 fold change and 0.919 fold change and 0.851 fold change
- fold change MCL1 vs Tubulin ([6]; time 3 h): 0.354 fold change and 0.557 fold change and 0.657 fold change
- fold change BID full length vs Tubulin ([6]; time 6 h): 0.842 fold change and 0.933 fold change and 0.854 fold change
- fold change MCL1 vs Tubulin ([6]; time 24 h): 1.039 fold change and 1.002 fold change and 0.903 fold change
- activation of p53 (p-p53 western blot) ([7]; PANC1, IC50, 1, 3, 6 and 24 h): did not activate p53
- phosphorylation of CHK1/2 (DDR pathway, western blot) ([7]; PANC1, IC50, 1, 3, 6 or 24 h): did not activate
- fold change BAX vs Tubulin ([7]; PANC1, time 1 h, Fig. S3B): 1.558 fold change and 0.8186 fold change and 1.264 fold change
- fold change BAX vs Tubulin ([7]; PANC1, time 3 h, Fig. S3B): 1.103 fold change and 1.1737 fold change and 1.2 fold change
- fold change BAX vs Tubulin ([7]; PANC1, time 6 h, Fig. S3B): 1.097 fold change and 1.226 fold change and 1.154 fold change
- fold change BAX vs Tubulin ([7]; PANC1, time 24 h, Fig. S3B): 1.153 fold change and 1.646 fold change and 1.378 fold change
- fold change BID full length vs Tubulin ([7]; PANC1, time 24 h, Fig. S3B): 0.5478 fold change and 0.965 fold change and 0.596 fold change
- fold change MCL1 vs Tubulin ([7]; PANC1, time 24 h, Fig. S3B): 1.638 fold change and 3.054 fold change and 2.481 fold change
- fold change p-ERK vs Tubulin ([7]; Time 1 h): 5.052 fold change and 7.4391 fold change and 5.41 fold change
- fold change p-JNK vs Tubulin ([7]; Time 1 h): 2.895 fold change and 2.7686 fold change and 4.719 fold change
- fold change p-p38 vs Tubulin ([7]; Time 1 h): 2.229 fold change and 1.109 fold change and 1.075 fold change
- fold change p-p53 vs Tubulin ([7]; Time 1 h): 0.74 fold change and 1.11 fold change and 0.95 fold change
- fold change p-ERK vs Tubulin ([7]; Time 3 h): 4.573 fold change and 11.3646 fold change and 8.3 fold change
- fold change p-JNK vs Tubulin ([7]; Time 3 h): 1.5726 fold change and 2.305 fold change and 1.813 fold change
- fold change p-p38 vs Tubulin ([7]; Time 3 h): 2.01 fold change and 1.474 fold change and 1.299 fold change
- fold change p-p53 vs Tubulin ([7]; Time 3 h): 0.37 fold change and 1.05 fold change and 0.6 fold change
- fold change p-ERK vs Tubulin ([7]; Time 6 h): 3.1087 fold change and 13.4172 fold change and 7.72 fold change
- fold change p-JNK vs Tubulin ([7]; Time 6 h): 2.264 fold change and 2.75 fold change and 2.02 fold change
- fold change p-p38 vs Tubulin ([7]; Time 6 h): 1.737 fold change and 1.3292 fold change and 1.51 fold change
- fold change p-p53 vs Tubulin ([7]; Time 6 h): 0.46 fold change and 1.28 fold change and 0.68 fold change
- fold change p-ERK vs Tubulin ([7]; Time 24 h): 0.9081 fold change and 11.3435 fold change and 3.15 fold change
- fold change p-JNK vs Tubulin ([7]; Time 24 h): 0.7671 fold change and 1.164 fold change and 1.094 fold change
- fold change p-p38 vs Tubulin ([7]; Time 24 h): 1.276 fold change and 1.422 fold change and 1.33 fold change
- fold change p-p53 vs Tubulin ([7]; Time 24 h): 0.81 fold change and 1.22 fold change and 0.52 fold change
